Source: the supplement of paper PMC4862054

How the values were obtained:
CAL-85-1 [1] = conditions: 72 h
Procedure, shortened: (§1)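 For viability, cells received 2.5 µl CellTiter-Blue for 2 h at 37 °C and fluorescence was read at 560/590 nm. Before this, breast cancer cell lines in 20 µl suspension had been incubated for 72 h on 384-well plates pre-loaded with compound dissolved in 5 µl medium. EC50 was obtained from a percent-inhibition dose-response fit censored at the highest concentration, after normalisation of each plate to vehicle and a positive kill control; rows with a zero drug sensitivity score were discarded.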

HDQ-P1 [2] = conditions: 72 h
Procedure, shortened: as §1

DU-4475 = conditions: 72 h
Procedure, shortened: as §1

CAL-51 [3] = conditions: 72 h
Procedure, shortened: as §1

SK-BR-3 [4] = conditions: 72 h
Procedure, shortened: as §1

MDA-MB-468 [5] = conditions: 72 h
Procedure, shortened: as §1

HCC1143 [6] = conditions: 72 h
Procedure, shortened: as §1

BT-549 [7] = conditions: 72 h
Procedure, shortened: as §1

BT-474 [8] = conditions: 72 h
Procedure, shortened: as §1

Hs578T [9] = conditions: 72 h
Procedure, shortened: as §1

MDA-MB-436 [10] = conditions: 72 h
Procedure, shortened: as §1

MFM-223 = conditions: 72 h
Procedure, shortened: as §1

SK-BR-3 [11] = conditions: 72 h; remark: listed apart in the source
Procedure, shortened: (§2)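 Per-plate normalisation used 0.1 % DMSO and a positive kill control. Breast cancer cell lines (20 µl suspension) were seeded into 384-well plates containing compound at 5 concentrations in 10-fold steps across a compound-specific 10,000-fold range, incubated for 72 h, and read first for CellTox Green fluorescence (485/520 nm), then for CellTiter-Glo luminescence. EC50 was fitted from the dose-response curves and censored at the top concentration.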

Hs578T [12] = conditions: 72 h; remark: listed apart in the source
Procedure, shortened: as §2

CAL-85-1 [13] = conditions: 72 h; remark: listed apart in the source
Protocol: (§3)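 Drug sensitivity and resistance testing (DSRT) of breast cancer cell lines in 384-well plates, 5 concentrations in 10-fold dilutions over a compound-specific 10,000-fold range. After 72 h, cytotoxicity was read by CellTox Green fluorescence and viability by CellTiter-Glo luminescence (multiplexed), normalised to DMSO and benzethonium chloride controls. EC50 is the inflection point of the fitted dose-response curve (bottom asymptote free, so it can be relative for partial curves) and is censored at the highest tested concentration. Rows with DSS 0 (no meaningful response) were excluded.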

MDA-MB-468 [14] = conditions: 72 h; remark: listed apart in the source
Protocol: as §3

MDA-MB-231 [15] = conditions: 72 h
Protocol: as §3

Hs578T [16] = conditions: 72 h; remark: listed apart in the source
Protocol: as §3

CAL-51 [17] = conditions: 72 h; remark: listed apart in the source
Protocol: as §3

HCC1599 [18] = conditions: 72 h
Procedure, shortened: as §2

HCC1937 = conditions: 72 h
Procedure, shortened: as §2

MCF-10A = conditions: 72 h
Procedure, shortened: as §2

CAL-85-1 [19] = conditions: 72 h; remark: listed apart in the source
Procedure, shortened: as §2

HDQ-P1 [20] = conditions: 72 h; remark: listed apart in the source
Procedure, shortened: as §2

CAL-120 = conditions: 72 h
Procedure, shortened: as §2

MDA-MB-231 [21] = conditions: 72 h; remark: listed apart in the source
Procedure, shortened: as §2

HCC1143 [22] = conditions: 72 h; remark: listed apart in the source
Procedure, shortened: as §2

MDA-MB-453 = conditions: 72 h
Procedure, shortened: as §2

BT-549 [23] = conditions: 72 h; remark: listed apart in the source
Procedure, shortened: as §2

MDA-MB-436 [24] = conditions: 72 h; remark: listed apart in the source
Procedure, shortened: as §2

HCC1599 [25] = conditions: 72 h; remark: listed apart in the source
Procedure, shortened: as §1

HDQ-P1 [26] = experiment: normalised response (% of control), CellTiter-Glo; higher = more viable cells (100 = DMSO, 0 = benzethonium chloride kill control); conditions: incubation time: 72 h
Procedure, shortened: (§4)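 In 384-well plates holding compound at 5 concentrations in 10-fold steps over a 10,000-fold range specific to each compound, breast cancer cell lines were seeded as 20 µl suspension and incubated 72 h. CellTox Green fluorescence was measured at 485/520 nm, after which CellTiter-Glo luminescence was measured following 10 min at room temperature. Plate signals were normalised to 0.1 % DMSO (100) and a positive kill control (0), and each value is the normalised signal at a single concentration.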

MDA-MB-468 [27] = experiment: as above; conditions: incubation time: 72 h
Procedure, shortened: as §4

HCC1143 [28] = experiment: as above; conditions: incubation time: 72 h
Procedure, shortened: as §4

BT-549 [29] = experiment: as above; conditions: incubation time: 72 h
Procedure, shortened: as §4

BT-474 [30] = experiment: as above; conditions: incubation time: 72 h
Procedure, shortened: as §4

Structure (SMILES)	EC50, CellTiter-Blue viability (SK-BR-3 [4]) [nM]	EC50, CellTiter-Blue viability (MDA-MB-468 [5]) [nM]	EC50, CellTiter-Blue viability (HCC1143 [6]) [nM]	EC50, CellTiter-Blue viability (BT-549 [7]) [nM]	EC50, CellTiter-Blue viability (MDA-MB-436 [10]) [nM]	EC50, CellTiter-Glo (SK-BR-3 [11]) [nM]	EC50, CellTiter-Blue viability (CAL-85-1 [1]) [nM]	EC50, CellTiter-Blue viability (HDQ-P1 [2]) [nM]	EC50, CellTiter-Blue viability (DU-4475) [nM]	EC50, CellTiter-Blue viability (CAL-51 [3]) [nM]	EC50, CellTiter-Blue viability (Hs578T [9]) [nM]	EC50, CellTiter-Glo (Hs578T [12]) [nM]	normalised response (HDQ-P1 [26]) [%]	normalised response (MDA-MB-468 [27]) [%]	normalised response (HCC1143 [28]) [%]	normalised response (BT-549 [29]) [%]	normalised response (BT-474 [30]) [%]	also measured
Cc1ccc(C(=O)N(CCCN)[C@@H](c2oc3cc(Cl)ccc3c(=O)c2Cc2ccccc2)C(C)C)cc1	0.74	1.88	2.09	1.83	2.55	–	4.95	2.34	8.62	6.53	4.05	–	–	–	–	–	–	EC50, CellTiter-Blue viability (BT-474 [8]): 4.38 nM; EC50, CellTiter-Blue viability (MFM-223): 3.75 nM
CO[C@H]1/C=C\C=C(/C)C(=O)NC2=CC(=O)C(NCCN(C)C)=C(C[C@@H](C)C[C@H](OC)[C@H](O)[C@@H](C)/C=C(\C)[C@@H]1OC(N)=O)C2=O [Alvespimycin] (100 nM)	–	–	–	–	–	–	–	–	–	–	–	–	31.3	39.6	35.4	33.7	36.1	–
CCC1(c2ccc(N)cc2)CCC(=O)NC1=O (stereo not drawn) [Aminoglutethimide] (1000 nM)	–	–	–	–	–	–	–	–	–	–	–	–	97	105	97.6	94.7	100	–

The next lines start with results.

EC50, CellTiter-Blue viability (SK-BR-3 [4]) [nM]	EC50, CellTiter-Blue viability (MDA-MB-468 [5]) [nM]	EC50, CellTiter-Blue viability (HCC1143 [6]) [nM]	EC50, CellTiter-Blue viability (BT-549 [7]) [nM]	EC50, CellTiter-Blue viability (MDA-MB-436 [10]) [nM]	EC50, CellTiter-Glo (SK-BR-3 [11]) [nM]	Structure (SMILES)	EC50, CellTiter-Blue viability (CAL-85-1 [1]) [nM]	EC50, CellTiter-Blue viability (HDQ-P1 [2]) [nM]	EC50, CellTiter-Blue viability (DU-4475) [nM]	EC50, CellTiter-Blue viability (CAL-51 [3]) [nM]	EC50, CellTiter-Blue viability (Hs578T [9]) [nM]	EC50, CellTiter-Glo (Hs578T [12]) [nM]	normalised response (HDQ-P1 [26]) [%]	normalised response (MDA-MB-468 [27]) [%]	normalised response (HCC1143 [28]) [%]	normalised response (BT-549 [29]) [%]	normalised response (BT-474 [30]) [%]	also measured
–	–	–	–	–	> 10000	O=C(O)c1ccc(-c2c[nH]c3ncc(-c4ccccc4)cc23)cc1C1CCCC1	–	–	–	–	–	> 10000	–	–	–	–	–	–
–	–	–	–	–	458	NC(=O)Nc1cc(-c2cccc(F)c2)sc1C(=O)N[C@H]1CCCNC1 [AZD7762]	–	–	–	–	–	467	–	–	–	–	–	EC50, CellTox Green (CAL-85-1 [13]): 75.8 nM; EC50, CellTox Green (MDA-MB-468 [14]): 26.5 nM; EC50, CellTox Green (MDA-MB-231 [15]): 745 nM; EC50, CellTox Green (Hs578T [16]): 2.65 nM; EC50, CellTox Green (CAL-51 [17]): 500 nM; EC50, CellTiter-Glo (HCC1599 [18]): 236 nM; EC50, CellTiter-Glo (HCC1937): 593 nM; EC50, CellTiter-Glo (MCF-10A): 499 nM; EC50, CellTiter-Glo (CAL-85-1 [19]): 112 nM; EC50, CellTiter-Glo (HDQ-P1 [20]): 570 nM; EC50, CellTiter-Glo (CAL-120): 255 nM; EC50, CellTiter-Glo (MDA-MB-231 [21]): 193 nM; EC50, CellTiter-Glo (HCC1143 [22]): 361 nM; EC50, CellTiter-Glo (MDA-MB-453): 672 nM; EC50, CellTiter-Glo (BT-549 [23]): 131 nM; EC50, CellTiter-Glo (MDA-MB-436 [24]): 237 nM
364	610	705	670	333	–	NC(=O)Nc1cc(-c2cccc(F)c2)sc1C(=O)N[C@H]1CCCNC1 [AZD 7762]	215	508	619	564	211	–	–	–	–	–	–	EC50, CellTiter-Blue viability (HCC1599 [25]): 87.7 nM
